Read-outs that look alike come from different tables or passages of the source.
How the values were obtained:
[1] = target: T1, CDK9/CycT1 (Homo sapiens, UniProt P50750); experiment: CDK9/CycT1 kinase assay (TR-FRET, 10 μM ATP); type: biochemical; settings: Method 1a
T1 construct: Recombinant full-length His-tagged human CDK9 and CycT1; His; purchased Invitrogen PV4131; host or cells: insect cells
Source text: 1a. CDK9/CyeT1 Kinase Assay:
CDK9/CycT1-inhibitory activity of compounds of the present invention was quantified employing the CDK9/CycT1 TR-FRET assay as described in the following paragraphs:
Recombinant full-length His-tagged human CDK9 and CycT1, expressed in insect cells and purified by Ni-NTA affinity chromatography, were purchased from Invitrogen (Cat. No PV4131). As substrate for the kinase reaction biotinylated peptide biotin-Ttds-[…] (C-terminus in amid form) was used which can be purchased e.g. form the company JERINI Peptide Technologies (Berlin, Germany). For the assay 50 nl of a 100 fold concentrated solution of the test compound in DMSO was pipetted into a black low volume 384 well microtiter plate (Greiner Bio-One, Frickenhausen, Germany), 2 μl of a solution of CDK9/CycT1 in aqueous assay buffer [50 mM Tris/HCl pH 8.0, 10 mM MgCl2, 1.0 mM dithiothreitol, 0.1 mM sodium ortho-vanadate, 0.01% (v/v) Nonidet-P40 (Sigma)] were added and the mixture was incubated for 15 min at 22° C. to allow pre-binding of the test compounds to the enzyme before the start of the kinase reaction.
The resulting mixture was incubated 1 h at 22° C. to allow the formation of complex between the phosphorylated biotinylated peptide and the detection reagents. Subsequently the amount of phosphorylated substrate was evaluated by measurement of the resonance energy transfer from the Eu-chelate to the streptavidine-XL.

[2] = test system: NCI-H460, human non-small cell lung carcinoma cells; experiment: Proliferation assay, NCI-H460 (crystal violet); type: cell-based; settings: NCI-H460, 4 days, read-out: Inhibition of NCI-H460 cell proliferation IC50
Procedure: (§1) Cultivated tumour cells (HeLa, human cervical tumour cells, ATCC CCL-2; NCI-H460, human non-small cell lung carcinoma cells, ATCC HTB-177; A2780, human ovarian carcinoma cells, ECACC #93112519; DU 145, hormone-independent human prostate carcinoma cells, ATCC HTB-81; HeLa-MaTu-ADR, multidrug-resistant human cervical carcinoma cells, EPO-GmbH Berlin; Caco-2, human colorectal carcinoma cells, ATCC HTB-37; B16F10, mouse melanoma cells, ATCC CRL-6475) were plated at a density of 5,000 cells/well (DU145, HeLa-MaTu-ADR), 3,000 cells/well (NCI-H460, HeLa), 2,500 cells/well (A2780), 1,500 cells/well (Caco-2), or 1,000 cells/well (B16F10) in a 96-well multititer plate in 200 μL of their respective growth medium supplemented 10% fetal calf serum. After 24 hours, the cells of one plate (zero-point plate) were stained with crystal violet (see below), while the medium of the other plates was replaced by fresh culture medium (200 μl), to which the test substances were added in various concentrations (0 μM, as well as in the range of 0.001-10 μM; the final concentration of the solvent dimethyl sulfoxide was 0.5%). The cells were incubated for 4 days in the presence of test substances. Cell proliferation was determined by staining the cells with crystal violet: the cells were fixed by adding 20 μl/measuring point of an 11% glutaric aldehyde solution for 15 minutes at room temperature. After three washing cycles of the fixed cells with water, the plates were dried at room temperature. The cells were stained by adding 100 μl/measuring point of a 0.1% crystal violet solution (pH 3.0). After three washing cycles of the stained cells with water, the plates were dried at room temperature. The dye was dissolved by adding 100 μl/measuring point of a 10% acetic acid solution. The extinction was determined by photometry at a wavelength of 595 nm. The change of cell number, in percent, was calculated by normalization of the measured values to the extinction values of the zero-point plate (=0%) and the extinction of the untreated (0 μm) cells (=100%). The IC50 values (inhibitory concentration at 50% of maximal effect) were determined by means of a 4 parameter fit. Non-adherent MOLM-13 human acute myeloid leukemia cells (DSMZ ACC 554) were seeded at a density of 5,000 cells/well in a 96-well multititer plate in 100 μL of growth medium supplemented 10% fetal calf serum. After 24 hours, cell viability of one plate (zero-point plate) was determined with the Cell Titre-Glo Luminescent Cell Viability Assay (Promega), while 50 μL of test compound containing medium was added to the wells of the other plates (final concentrations in the range of 0.001-10 μM and DMSO controls; the final concentration of the solvent dimethyl sulfoxide was 0.5%). Cell viability was assessed after 72-hour exposure with the Cell Titre-Glo Luminescent Cell Viability Assay (Promega).

[3] = test system: DU 145, hormone-independent human prostate carcinoma cells; experiment: Proliferation assay, DU145 (crystal violet); type: cell-based; settings: DU145, 4 days, read-out: Inhibition of DU145 cell proliferation IC50
Procedure: as §1

T1 sequence (P50750 whole entry): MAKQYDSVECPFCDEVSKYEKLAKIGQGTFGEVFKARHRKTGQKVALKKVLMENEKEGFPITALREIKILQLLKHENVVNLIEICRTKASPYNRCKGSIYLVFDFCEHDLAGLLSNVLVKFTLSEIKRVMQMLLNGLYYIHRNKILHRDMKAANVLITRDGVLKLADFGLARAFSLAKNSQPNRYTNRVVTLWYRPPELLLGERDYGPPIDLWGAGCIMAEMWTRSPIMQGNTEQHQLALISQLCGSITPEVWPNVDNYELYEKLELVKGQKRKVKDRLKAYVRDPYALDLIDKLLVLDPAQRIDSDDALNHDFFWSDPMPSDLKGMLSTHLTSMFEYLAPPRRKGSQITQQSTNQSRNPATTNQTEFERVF
T1 sequence (O60563 whole entry partner): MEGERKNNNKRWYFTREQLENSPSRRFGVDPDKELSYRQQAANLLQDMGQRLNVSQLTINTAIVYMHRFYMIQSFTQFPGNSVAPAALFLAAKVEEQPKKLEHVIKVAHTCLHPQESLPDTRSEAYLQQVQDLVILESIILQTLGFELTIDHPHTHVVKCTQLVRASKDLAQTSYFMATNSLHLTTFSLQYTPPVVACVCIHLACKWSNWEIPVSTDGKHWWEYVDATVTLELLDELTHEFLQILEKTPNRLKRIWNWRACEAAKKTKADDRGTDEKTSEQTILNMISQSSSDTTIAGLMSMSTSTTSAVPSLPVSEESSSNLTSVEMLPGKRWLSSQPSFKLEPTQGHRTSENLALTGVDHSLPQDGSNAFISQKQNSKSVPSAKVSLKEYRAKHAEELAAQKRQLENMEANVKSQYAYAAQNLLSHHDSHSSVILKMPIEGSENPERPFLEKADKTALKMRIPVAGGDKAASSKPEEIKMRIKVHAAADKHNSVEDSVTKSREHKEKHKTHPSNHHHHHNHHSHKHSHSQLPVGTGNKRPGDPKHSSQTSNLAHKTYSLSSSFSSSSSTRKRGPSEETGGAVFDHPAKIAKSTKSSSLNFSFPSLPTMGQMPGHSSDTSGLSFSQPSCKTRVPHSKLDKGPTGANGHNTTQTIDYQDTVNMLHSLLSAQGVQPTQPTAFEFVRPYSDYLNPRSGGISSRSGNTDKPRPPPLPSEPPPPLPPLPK

Row | SMILES | IC50 [1] | IC50 ([2]; Homo sapiens, NCI-H460, 96 h) | IC50 ([3]; Homo sapiens, DU-145, 96 h) | IC50 [2] | IC50 [3]
1 | CCOC(=O)N=S(C)(=O)Cc1cc(Nc2cc(-c3ccc(F)cc3OC)c(F)cn2)nc(OC)c1 (racemic) [Example 15, (rac)-ethyl{[(2-{[5-fluoro-4-(4-fluoro-2-methoxyphenyl)pyridin-2-yl]amino}-6-methoxypyridin-4-yl)methyl](methyl)oxido-λ^6-sulfanylidene}carbamate] | 2 nM | 32 nM | 31 nM |  | 
2 | COc1cc(F)ccc1-c1cc(Nc2cc(CS(C)(=N)=O)cc(F)n2)ncc1F (racemic) [Example 17, (rac)-5-Fluoro-4-(4-fluoro-2-methoxyphenyl)-N-{6-fluoro-4-[(S-methylsulfonimidoyl)methyl]pyridin-2-yl}pyridin-2-amine] | 0.9 nM | 45 nM | 48 nM |  | 
3 | COc1cc(F)ccc1-c1cc(Nc2cc(CS(C)(=O)=NC(=O)C(F)(F)F)cc(F)n2)ncc1F (racemic) [Example 18, (rac)-2,2,2-Trifluoro-N-{[(2-fluoro-6-{[5-fluoro-4-(4-fluoro-2-methoxyphenyl)pyridin-2-yl]amino}pyridin-4-yl)methyl](methyl)oxido-λ^6-sulfanylidene}acetamide] | 3 nM | 110 nM | 41 nM |  | 
4 | COc1cc(F)ccc1-c1cc(Nc2cc(CS(C)(=N)=O)cc(C(F)(F)F)n2)ncc1F (racemic) [Example 21, (rac)-5-Fluoro-4-(4-fluoro-2-methoxyphenyl)-N-{4-[(S-methylsulfonimidoyl)methyl]-6-(trifluoromethyl)pyridin-2-yl}pyridin-2-amine] | 2 nM | 33 nM | 30 nM |  | 
5 | CCOc1cc(F)ccc1-c1cc(Nc2cc(CS(C)(=N)=O)cc(F)n2)ncc1F (racemic) [Example 26, (rac)-4-(2-Ethoxy-4-fluorophenyl)-5-fluoro-N-{6-fluoro-4-[(S-methylsulfonimidoyl)methyl]pyridin-2-yl}pyridin-2-amine] | 3 nM | 120 nM | 110 nM |  | 
6 | CCOc1cc(F)ccc1-c1cc(Nc2cc(CS(C)(=O)=NC(=O)C(F)(F)F)cc(F)n2)ncc1F (racemic) [Example 27, (rac)-N-{[(2-{[4-(2-Ethoxy-4-fluoro-phenyl)-5-fluoropyridin-2-yl]amino}-6-fluoropyridin-4-yl)methyl]-(methyl)oxido-λ^6-sulfanylidene}-2,2,2-trifluoroacetamide] | 9 nM | 120 nM | 110 nM |  | 
7 | CCS(=N)(=O)Cc1ccnc(Nc2cc(-c3ccc(F)cc3OC)c(F)cn2)c1 (racemic) [Example 30, (rac)-N-{4-[(S-Ethylsulfonimidoyl)-methyl]pyridin-2-yl}-5-fluoro-4-(4-fluoro-2-methoxyphenyl)pyridin-2-amine] | 3 nM | 120 nM | 82 nM |  | 
8 | COc1cc(F)ccc1-c1cc(Nc2cc(CS(C)(=O)=NC#N)ccn2)ncc1F (single isomer, unassigned) [Example 10, {[(2-{[5-Fluoro-4-(4-fluoro-2-methoxyphenyl)pyridin-2-yl]amino}pyridin-4-yl)methyl](methyl)oxido-λ^6-sulfanylidene}cyanamide] | 4 nM | 39 nM | 34 nM |  | 
9 | COc1cc(F)ccc1-c1cc(Nc2cc(CS(C)(=N)=O)cc(F)n2)ncc1F (single isomer, unassigned; (+)) [Example 19, (+)-5-Fluoro-4-(4-fluoro-2-methoxyphenyl)-N-{6-fluoro-4-[(S-methylsulfonimidoyl)methyl]pyridin-2-yl}pyridin-2-amine] | 5 nM | 110 nM | 58 nM |  | 
10 | COc1cc(F)ccc1-c1cc(Nc2cc(CS(C)(=N)=O)cc(C(F)(F)F)n2)ncc1F (single isomer, unassigned; (+)) [Example 22, (+)-5-Fluoro-4-(4-fluoro-2-methoxyphenyl)-N-{4-[(S-methylsulfonimidoyl)methyl]-6-(trifluoromethyl)pyridin-2-yl}pyridin-2-amine] | 2 nM | 34 nM | 32 nM |  | 
11 | COc1cc(F)ccc1-c1cc(Nc2cc(CS(C)(=O)=NC(=O)C(F)(F)F)cc(C(F)(F)F)n2)ncc1F (single isomer, unassigned; (+)) [Example 24, (+)-2,2,2-Trifluoro-N-[{[2-{[5-fluoro-4-(4-fluoro-2-methoxyphenyl)pyridin-2-yl]amino}-6-(trifluoromethyl)-pyridin-4-yl]methyl}(methyl)oxido-λ^6-sulfanylidene]acetamide] | 18 nM | 33 nM | 33 nM |  | 
12 | CCOc1cc(F)ccc1-c1cc(Nc2cc(CS(C)(=N)=O)cc(F)n2)ncc1F (single isomer, unassigned; (+)) [Example 28, (+)-4-(2-Ethoxy-4-fluorophenyl)-5-fluoro-N-{6-fluoro-4-[(S-methylsulfonimidoyl)methyl]pyridin-2-yl}pyridin-2-amine] | 5 nM | 190 nM | 120 nM |  | 
13 | COc1cc(F)ccc1-c1cc(Nc2cc(CS(C)(=N)=O)cc(F)n2)ncc1F (single isomer, unassigned; (-)) [Example 20, (−)-5-Fluoro-4-(4-fluoro-2-methoxyphenyl)-N-{6-fluoro-4-[(S-methylsulfonimidoyl)methyl]pyridin-2-yl}pyridin-2-amine] | 2 nM |  |  | 100 nM | 58 nM
14 | COc1cc(F)ccc1-c1cc(Nc2cc(CS(C)(=O)=NC(=O)C(F)(F)F)cc(C(F)(F)F)n2)ncc1F (single isomer, unassigned; (-)) [Example 25, (−)-2,2,2-Trifluoro-N-[{[2-{[5-fluoro-4-(4-fluoro-2-methoxyphenyl)pyridin-2-yl]amino}-6-(trifluoromethyl)-pyridin-4-yl]methyl}(methyl)oxido-λ^6-sulfanylidene]acetamide] | 15 nM |  |  | 36 nM | 37 nM
15 | CCOc1cc(F)ccc1-c1cc(Nc2cc(CS(C)(=N)=O)cc(F)n2)ncc1F (single isomer, unassigned; (-)) [Example 29, (−)-4-(2-Ethoxy-4-fluorophenyl)-5-fluoro-N-{6-fluoro-4-[(S-methylsulfonimidoyl)methyl]pyridin-2-yl}pyridin-2-amine] | 3 nM |  |  | 150 nM | 110 nM

Source: US9650340B2, “5-fluoro-N-(pyridin-2-yl)pyridin-2-amine derivatives containing a sulfoximine group” (BAYER PHARMA AKTIENGESELLSCHAFT, priority 2012, dated 2017)
